Measured values taken from patent US20260146102A1, “METHODS FOR MODULATING REGULATORY T CELLS” (Universite de Lausanne, priority 2018, published 2026).

Tests used:
YUMM1.7 melanoma = experiment: YUMM1.7 melanoma-engrafted mice treated with PPARβ selective agonist; type: in vivo
Procedure: Tumor engraftment and treatment of tumor-bearing mice. For tumor induction, 3-week-old Braf/Pten mice were treated with 4-hydroxytamoxifen on the skin surface as described before to induce tumor formation (Ho, P. C. et al. Cancer Res 74, 3205-3217 (2014)). For tumor engraftment, 5×10^4 cells YUMM1.7, B 16-OVA, or one million MC38 tumor cells were injected subcutaneously in 50 μl PBS. Tumors were measured every 2-3 days post tumor engraftment or indicated treatments and calculated. Tumor volume was calculated by volume=(length×width^2 )/2 for engrafted tumor or volume=(length×width×height) for inducible tumor. For in vivo treatment, Yumm 1.7-bearing mice were administrated every 3 days with either DMSO or PPARβ agonist (GW 501516) (1 mg per kg of body weight, Cayman Chemical) by intraperitoneal injection. For antibody-based treatment, tumor-bearing mice were treated with anti-PD-1 antibody (200 μg per injection, BioXcell, clone 29F.1A12) and anti-CD36 antibody (200 μg per injection, clone CRF D-2712 (Driscoll, W. S., et al. Circulation research 113, 52-61 (2013)) according to indicated combination by intraperitoneal injection. For antibody treatment in the Braf/Pten mouse model, four weeks after tumor induction, tumor-bearing Braf/Pten mice were treated with anti-CD36 antibody and/or anti-PD-1 antibody as indicated above for a period of 10 days. All experiments were conducted according to Swiss federal regulations.
Tumor digestion and cell isolation. Tumors were minced into small pieces in RPMI containing 2% FBS, 1% penicillin-streptomycin (p/s), DNase I (1 μg/ml, Sigma-Aldrich), and collagenase (0.5 mg/ml, Sigma-Aldrich) and kept for digestion for 40 min at 37° C., followed by the filtration with a 70 μm cell strainer. Filtered cells were incubated with ACK lysis buffer (Invitrogen) to lyse red blood cells and then washed with fluorescent activated cell sorter (FACS) buffer (phosphate-buffered saline with 2% fetal bovine serum and 2 mM EDTA). Tumor-infiltrating leukocytes were further enriched by percoll density gradient centrifugation (800×g, 30 min) at room temperature as described before (Cheng, W. C. et al. Nat Immunol 20, 206-217 (2019)).
Flow cytometry, cell sorting, and antibodies. Single cell suspensions were incubated with Fc receptor-blocking anti-CD16/32 (93) and anti-CD351 (TX61) antibodies (Biolegend) on ice for 10 min before staining. Cell suspensions were first stained with LIVE/DEAD® Fixable Violet Dead Cell Stain Kit (ThermoFisher) at 37° C. for 10 min. After washing, surface proteins were stained for 30 min at 4° C. […] Samples were analyzed on LSRII flow cytometers (BD Biosciences) and data were analyzed with FlowJo. […]

CD36-deficient Tregs [1] = experiment: NAD/NADH measurement in CD36-deficient iTregs cultured in cancer cell-conditioned medium; type: cell-based, mice; conditions: 48 h, vs DMSO
Procedure: Cancer cell-conditioned medium and iTreg culture. iTregs were generated by activating naïve CD4^+ T cells with Dynabeads conjugated with anti-CD3 and anti-CD28 mAbs (ThermoFisher) in RMPI media supplemented with 10% FBS, 10 ng/ml TGFβ and 50 U/ml IL-2 for three days. Then activated CD 4^+ T cells were maintained in RPMI media plus 10% FBS and 50 U/ml IL-2 for another 2 days. Differentiated iTregs were firstly sorted by using FACS cell sorter and then incubated in indicated culture condition for 48 h. The survival and NAD/NADH levels of iTregs were then determined by live/dead staining and ELISA kits, respectively. For NAD/NADH measurement in CD36-KO iTregs treated with PPARβ agonist, sorted iTregs were cultured in cancer cell-conditioned medium in the presence of DMSO or GW50156 for 48 h. […]
NAD and NADH measurement. The ratio of nicotinamide adenine dinucleotide (NAD) and nicotinamide adenine dinucleotide […] (NADH) was measured by using the commercial NAD/NADH Quantification Kit (Sigma-Aldrich MAK037). […]
decomposition. The samples were then transferred to a 96 wells plate for measuring the absorbance of 450 nm. […] The ratio of NAD/NADH in a sample could be determined by the following equation: ratio=(NADtotal−NADH)/NADH.

CD36-deficient Tregs [2] = experiment: Viability of iTregs in cancer cell-conditioned medium with or without NR; type: cell-based, mice; conditions: NR 400 μM, 72 hrs (FIG. 3i)
Procedure: Cancer cell-conditioned medium and iTreg culture. iTregs were generated by activating naïve CD4^+ T cells with Dynabeads conjugated with anti-CD3 and anti-CD28 mAbs (ThermoFisher) in RMPI media supplemented with 10% FBS, 10 ng/ml TGFβ and 50 U/ml IL-2 for three days. Then activated CD 4^+ T cells were maintained in RPMI media plus 10% FBS and 50 U/ml IL-2 for another 2 days. […] The survival and NAD/NADH levels of iTregs were then determined by live/dead staining and ELISA kits, respectively. For NAD/NADH measurement in CD36-KO iTregs treated with PPARβ agonist, sorted iTregs were cultured in cancer cell-conditioned medium in the presence of DMSO or GW50156 for 48 h. Control RPMI for iTreg in vitro treatment was prepared with RPMI 1640 medium (Biological Industries) supplementing with 2 mM Glucose, 10 mM Glutamine, 10% Dialyzed FBS, 0.1% β-ME, and indicated levels of lactic acids. YUMM1.7 cancer cell-conditioned medium was collected by incubating YUMM1.7 cells (70-80% density) with control RPMI described above for 18 h. Then, culture medium was collected and centrifuged at 2000 rpm for 15 min to remove debris and cancer cells as cancer cell-conditioned medium. YUMM1.7 cancer cell-conditioned medium collected as described above was treated with Cleanascite™ reagent (Biotech Support Group) prior to Treg culture at a volume ratio of 1:5 according to the manufacturer's instruction.

| SMILES | cleaved caspase-3 in intratumoral Tregs (YUMM1.7 melanoma; Treg^CD36−/− mice (FIG. 4i)) | mitochondrial membrane potential of intratumoral Tregs (MitoTracker Deep Red staining) (YUMM1.7 melanoma; Treg^CD36−/− mice (FIG. 4h)) | intratumoral Treg abundance (FoxP3+ Tregs among CD4+ tumor-infiltrating T lymphocytes) (YUMM1.7 melanoma; Treg^CD36−/− mice, 1 mg per kg i.p. every 3 days, two weeks (FIG. 4g)) | tumor growth (YUMM1.7 melanoma; Treg^CD36−/− mice, 1 mg per kg i.p. every 3 days, two weeks, vs control vehicle (FIG. 4f)) | NAD/NADH ratio (CD36-deficient Tregs [1]) | viability of CD36-deficient Tregs exposed to cancer cell-conditioned medium (CD36-deficient Tregs [2]) |
| --- | --- | --- | --- | --- | --- | --- |
| Cc1cc(SCc2sc(-c3ccc(C(F)(F)F)cc3)nc2C)ccc1OCC(=O)O [GW501516] | lower levels | increased mitochondrial membrane potentials | restored | restored tumor growth | increased NAD/NADH ratios | – |
| NC(=O)c1ccc[n+]([C@@H]2O[C@H](CO)[C@@H](O)[C@H]2O)c1 [nicotinamide riboside] | – | – | – | – | – | partially rescued the viability |
